# Patent US20260174769A1, “MACROCYCLIC COMPOUNDS AND METHODS OF USE” (AMGEN INC., priority 2022, published 2026)
# Read-outs that look alike come from different tables or passages of the source.
# Legend:
# [1] = target: His-tagged KRAS G12D protein (Homo sapiens, UniProt P01116, G12D); test: KRAS G12D TR-FRET Assay; format: binding
# Method in brief: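 GDP-loaded His-KRAS G12D (20 nM in HEPES pH 7.4, MgCl2, NaCl, BSA, Tween-20, 10 μM GDP) preincubated with compound 30 min at room temperature, then 20 nM biotinylated KRPep-2d peptide added for 1 h. TR-FRET detection used Eu anti-His and streptavidin-d2, read after 1 h.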
# [2] = target: GDP-bound KRAS protein (aa 1-169), containing both G12D and C118A amino acid substitutions (Homo sapiens, UniProt P01116, C118A/G12D); test: KRAS G12D Coupled Nucleotide Exchange Assay; format: biochemical
# Experimental: KRAS G12D Coupled Nucleotide Exchange Assay
# The assay plates were then read on a PerkinElmer En Vision Multilabel Reader, using AlphaScreen® technology, and data were analyzed using a 4-parameter logistic model to calculate IC50 values.
# [3] = test system: Phosphorylation of ERK1/2 in AsPC-1 cells; test: Phospho-ERK1/2 MSD Assay; format: cell-based, human; settings: read-out: 2 h p-ERK (AsPC-1 cells), IC50
# Experimental: Sixteen hours prior to compound treatment, AsPC-1 cells were seeded in 96-well cell culture plates at a density of 25,000 cells/well and incubated at 37° C., 5% CO2. A compound dose-response titration was diluted in growth media, added to appropriate wells of a cell culture plate, and then incubated at 37° C., 5% CO2 for 2 hours. […] Phosphorylation of ERK1/2 in compound-treated lysates was assayed using Phospho-ERK 1/2 Whole Cell Lysate kits (Meso Scale Discovery K151DWD) according to the manufacturer's protocol. Assay plates were read on a Meso Scale Discovery Sector Imager 6000, and data were analyzed using a 4-parameter logistic model to calculate IC50 values.
# AsPC-1 cells = test: AsPC-1 CTG Assay (CellTiter-Glo cell viability, 72 h); format: cell-based, human; settings: read-out: G12D/C/V Cell Proliferation CTG (72 h) AsPC-1
# Experimental: AsPC-1 and SW620 CTG Assay Protocols
# (§1) Serially-diluted compound or DMSO was added to the cells, and plates were incubated at 37° C., 5% CO2 for 72 h. Cell viability was measured using a CellTiter-Glo® Luminescent Cell Viability Assay kit (Promega) according to the manufacturer's protocol. The luminescence signal of treated samples was normalized to DMSO control, and data were analyzed using a 4-parameter logistic model to calculate IC50 values.
# MIA PaCa-2 cells = test: MIA PaCa-2 CTG Assay (CellTiter-Glo cell viability, 72 h); format: cell-based, human; settings: Homo sapiens, second value of cell, read-out: G12D/C/V Cell Proliferation CTG (72 h) Mia PaCa-2
# Experimental: MIA PaCa-2 CTG Assay Protocol
# as §1
# [4] = 16-membered ring
# [5] = 2 hours compound pre-incubation, SOS-mediated nucleotide exchange
# [6] = Homo sapiens, ASPC1, 2 h, AsPC-1 cells, 2 h compound treatment
# [7] = Homo sapiens, ASPC1, 72 h, AsPC-1 cells, 72 h, first value of cell
# [8] = Homo sapiens, ASPC1, 2 h, AsPC-1 cells, 2 h
# [9] = Homo sapiens, ASPC1, 72 h, AsPC-1 cells, 72 h, first value of the cell
# Chain of GDP-bound KRAS protein (aa 1-169), containing both G12D and C118A amino acid substitutions (P01116 1-169 isoform P01116-2 G12D/C118A): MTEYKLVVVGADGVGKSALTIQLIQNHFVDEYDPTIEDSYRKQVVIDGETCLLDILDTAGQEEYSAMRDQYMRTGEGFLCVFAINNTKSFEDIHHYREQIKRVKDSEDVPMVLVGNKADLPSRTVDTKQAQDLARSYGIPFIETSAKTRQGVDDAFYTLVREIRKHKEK
# Chain of His-tagged KRAS G12D protein (P01116 1-188 isoform P01116-2 G12D): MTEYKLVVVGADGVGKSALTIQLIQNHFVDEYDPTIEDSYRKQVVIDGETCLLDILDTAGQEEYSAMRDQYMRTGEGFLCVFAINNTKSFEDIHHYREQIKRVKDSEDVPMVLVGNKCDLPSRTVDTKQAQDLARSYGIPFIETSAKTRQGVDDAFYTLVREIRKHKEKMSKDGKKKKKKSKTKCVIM
IC50 ([1]; TR-FRET binding) [nM],"IC50 [3, 6] [nM]",IC50 (AsPC-1 cells; [7]) [nM],SMILES,also measured
–,–,–,"Cc1cc2[nH]ncc2c2c1CCCCOCC1CN(CCC1(F)F)c1nc(OC[C@@]34CCCN3C[C@H](F)C4)nc3c(F)c-2ncc13 (stereo partly drawn) [Example 227, (17R)-18,18,30-trifluoro-24-(((2R,7aS)-2-fluorotetrahydro-1H-pyrrolo[1,2-α]pyrrol-7a(SH)-yl)methoxy)-9-methyl-15-oxa-5,6,21.23,25,29-hexaazahexacyclo[24.3.1.1~17,21~.0~2,10~.0~3.7~.0~22,27~]hentriaconta-1(30),2,4,7,9,22,24,26,28-nonaene]",IC50 ([1]; read-out: KRAS G12D Binding IC50): 35 nM; IC50 [2]: 12 nM; IC50 [3]: 611 nM; IC50 (AsPC-1 cells): 3910 nM
4,11.8,120,"C[C@@]12COCCN(C1)c1nc(OC[C@@]34CCCN3C[C@H](F)C4)nc3c(F)c(ncc13)-c1c(c(F)cc3[nH]ncc13)CCCOC(=O)O2 [Example 184, (26S)-18,32-difluoro-4-(((2R,7aS)-2-fluorotetrahydro-1H-pyrrolo[1,2-a]pyrrol-7a(5H)-yl)methoxy)-26-methyl-23,25,28-trioxa-1,3,5,9,14,15-hexaazahexacyclo[24.4.1.1~6,10~.0~2,7~.0~11,19~.0~12,16~]dotriaconta-2,4,6,8,10(32),11,13,16,18-nonaen-24-one]","IC50 [2, 5]: 2 nM"
4,27,280,CC1COC(=O)C[C@@H]2CCCN(C2)c2nc(OC[C@@]34CCCN3C[C@H](F)C4)nc3c(F)c(ncc23)-c2c(c(Cl)cc3[nH]ncc23)C1 (some centres unmarked) [Example 91],"IC50 [2, 5]: 2 nM"
7,123,606,O=C1COCCc2c(Cl)cc3[nH]ncc3c2-c2ncc3c(nc(OC[C@@]45CCCN4C[C@H](F)C5)nc3c2F)N2CC[C@H]3CCN1[C@H]3C2 [Example 270],IC50 (MIA PaCa-2 cells): 675 nM
12,200,1950,"O=C1OCCCc2c(Cl)cccc2-c2ncc3c(nc(OC[C@@]45CCCN4C[C@H](F)C5)nc3c2F)N2CCOC[C@H](C2)O1 [Example 186, (23S)-15-chloro-29-fluoro-4-(((2R,7aS)-2-fluorotetrahydro-1H-pyrrolo[1,2-a]pyrrol-7a(5H)-yl)methoxy)-20,22,25-trioxa-1,3,5,9-tetraazapentacyclo[21.4.1.1~6,10~.0~2,7~.0~11,16~]nonacosa-2,4,6,8,10(29),11,13,15-octaen-21-one]",–
–,–,–,"C[C@@]12CCCCN(C1)c1nc(OC[C@@]34CCCN3C[C@H](F)C4)nc3c(F)c(ncc13)-c1c(c(Cl)cc3[nH]ncc13)CCCC(F)C(=O)N2 (mixture of isomers) [Example 281, (23RS,26R)-18-chloro-23,32-difluoro-4-(((2R,7aS)-2-fluorotetrahydro-1H-pyrrolo[1,2-a]pyrrol-7a(5H)-yl)methoxy)-26-methyl-1,3,5,9,14,15,25-heptaazahexacyclo[24.4.1.1~6,10~.0~2,7~.0~11,19~.0~12,16~]dotriaconta-2,4,6,8,10(32),11,13,16,18-nonaen-24-one]",IC50 (MIA PaCa-2 cells): 90 nM
4,13,92,"C[C@@]12CCCN(C1)c1nc(OC[C@@]34CCCN3C[C@H](F)C4)nc3c(F)c(ncc13)-c1cc(O)cc3ccc(F)c(c13)CCCC(=O)O2 [Example 43, (15R)-22,31-Difluoro-8-(((2R,7aS)-2-fluorotetrahydro-1H-pyrrolo[1,2-a]pyrrol-7a(5H)-yl)methoxy)-27-hydroxy-15-methyl-16-oxa-3,7,9,11-tetraazahexacyclo[19.7.1.1˜2,6˜.1˜11,15˜.0˜5,10˜.0˜25,29˜]hentriaconta-1(28),2(31),3,5,7,9,21,23,25(29),26-decaen-17-one bis(2,2,2-trifluoroacetate)]","IC50 [2, 5]: 2 nM"
–,–,–,O=C1CCCc2c(F)ccc3cccc(c23)-c2ncc3c(nc(OC[C@@]45CCCN4C[C@H](F)C5)nc3c2F)N2CCC[C@H](C2)N1,"ring closure, yield after HPLC ([4]; from N[C@@H]1CCCN(c2nc(OC[C@@]34CCCN3C[C@H](F)C4)nc3c(F)c(-c4cccc5ccc(F)c(CCCC(=O)O)c45)ncc23)C1, amide bond, HATU/DIEA, DMF, 5.9 mM, 0.5 h, 2 steps): 30%"
13,12,–,O=C1CCCCc2c(Cl)cc3[nH]ncc3c2-c2ncc3c(nc(OC[C@@]45CCCN4C[C@H](F)C5)nc3c2F)N2CCC3CCN1[C@H]3C2 (mixture of isomers) [Example 60],"IC50 [2, 5]: 6 nM"
–,16,191,Cc1cc2[nH]ncc2c2c1CCCOC(=O)CC1CCCN(C1)c1nc(OC[C@@]34CCCN3C[C@H](F)C4)nc3c(F)c-2ncc13 (some centres unmarked) [Example 39],–
–,–,–,Cc1cc2[nH]ncc2c(-c2ncc3c(O)nc(OC[C@@]45CCCN4C[C@H](F)C5)nc3c2F)c1CCOC(=O)OC[C@@H]1CCCNC1,"ring closure, yield after HPLC ([4]; the molecule shown is the open-chain precursor, snar bond): 20%"
–,–,–,CSc1nc2c3cnc(c(C)c3n1)-c1cc(O)cc3ccc(F)c(c13)CCCC(=O)N[C@]1(C)CCCN2C1,"ring closure, yield after HPLC ([4]; from CSc1nc(N2CCC[C@@](C)(N)C2)c2cnc(-c3cc(O)cc4ccc(F)c(CCCC(=O)O)c34)c(C)c2n1, amide bond, HATU, then Me2NH, DCM/DMA/DMF, 5.6 mM, 25.0 °C): 32%"
–,–,–,"O[C@H]1C[C@@H]2CN(C1)c1nc(OC[C@@]34CCCN3C[C@H](F)C4)nc3c(F)c(ncc13)-c1c(c(Cl)cc3[nH]ncc13)CCCc1nc2no1 [Example 378, (18R,20S)-9-chloro-31-fluoro-25-(((2R,7aS)~2-fluorotetrahydro-1H-pyrrolo[1,2-α]pyrrol-7a(5H)-yl)methoxy)-15-oxa-5,6,16,22,24,26,30,33-octaazaheptacyclo[25.3.1.1~14,17~.1~18,22~.0~2,10~0~3,7~.0~23,28~]tritriaconta-1(31),2,4,7,9,14(33),16,23,25,27,29-undecaen-20-ol]","IC50 [3, 8]: 47.7 nM; IC50 (AsPC-1 cells; [9]): 782 nM"
–,–,–,"O[C@H]1C[C@@H]2CN(C1)c1nc(OC[C@@]34CCCN3C[C@H](F)C4)nc3c(F)c(ncc13)-c1c(c(Cl)cc3[nH]ncc13)CCCc1nc2no1 (racemic) [Example 377, (rac-18R,20S)-9-chloro-31-fluoro-25-(((2R,7a.S)-2-fluorotetrahydro-1H-pyrrolo[1,2-a]pyrrol-7a(5H)-yl)methoxy)-15-oxa-5,6,16,22,24,26,30,33-octaazaheptacyclo[25.3.1.1~14,17~.1~18,22~.0~2,10~0~3.7~.0~23,28~]tritriaconta-1(31),2,4,7,9,14(33),16,23,25,27,29-undecaen-20-ol]","IC50 ([1]; TR-FRET, read-out: KRAS G12D Binding IC50): 5 nM; IC50 [3, 8]: 9.9 nM; IC50 (AsPC-1 cells; [9]): 125 nM"
–,–,–,CN1C(=O)OCCCc2c(Cl)cc3[nH]ncc3c2-c2ncc3c(nc(OC[C@@]45CCCN4C[C@H](F)C5)nc3c2F)N2CCC[C@@H]1C2,"ring closure, yield after HPLC ([4]; from CN(C(=O)OCCCc1c(Cl)cc2[nH]ncc2c1-c1ncc2c(O)nc(OC[C@@]34CCCN3C[C@H](F)C4)nc2c1F)[C@@H]1CCCNC1, snar bond, PyBroP/DIEA, MeCN/DMSO, 11.7 mM, 25.0 °C, 2 steps): 14%"
–,–,–,CN1C(=O)CCCCc2c(Cl)cc3[nH]ncc3c2-c2cc3nc(OC[C@@]45CCCN4C[C@H](F)C5)nc(c3nn2)N2CCC[C@@H]1C2,"ring closure, yield after HPLC ([4]; from CN[C@@H]1CCCN(c2nc(OC[C@@]34CCCN3C[C@H](F)C4)nc3cc(-c4c(CCCCC(=O)O)c(Cl)cc5[nH]ncc45)nnc23)C1, amide bond, EDCI/HOBt/DIEA, DCM, 10.3 mM, 25.0 °C, 36.0 h, 3 steps): 20%"
–,30.5,318,"O=C1OCCCc2c(Cl)cc3[nH]ncc3c2-c2ncc3c(nc(OC[C@@]45CCCN4C[C@H](F)C5)nc3c2F)N2CCC[C@]3(C2)C[C@H](C3)O1 [Example 323, (1R,3S)-11-chloro-33-fluoro-25-(((2R,7aS)-2-fluorotetrahydro-1H-pyrrolo[1,2-a]pyrrol-7a(5H)-yl)methoxy)-4,6-dioxa-14,15,20,24,26,28-hexaazaheptacyclo[26.3.1.1~1,3~.1~19,23~.0~10,18~.0~13,17~.0~22,27~]tetratriaconta-10,12,15,17,19(33),20,22,24,26-nonaen-5-one]",–
